# From PubChem BioAssay (NCI)
#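 Cultured in 96-well plates, cells were exposed to test compound for 48 hours across five concentrations. GI50 marks 50% less growth. TGI denotes the concentration required for complete inhibition of growth.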
# How the values were obtained:
# Assay in all cases: DTP human tumour cell line panel, 48 h
# [1] = test system: 786-0 renal
# [2] = test system: A498 renal
# [3] = test system: A549 NSCLC
# [4] = test system: ACHN renal
# [5] = test system: BT-549 breast
# [6] = test system: CCRF-CEM leukemia
# [7] = test system: COLO 205 colon
# [8] = test system: DU-145 prostate
# [9] = test system: EKVX NSCLC
# [10] = test system: HCC-2998 colon
# [11] = test system: HCT-116 colon
# [12] = test system: HCT-15 colon
# [13] = test system: HL-60(TB) leukemia
# [14] = test system: HOP-62 NSCLC
# [15] = test system: HOP-92 NSCLC
# [16] = test system: HS 578T breast
# [17] = test system: HT29 colon
# [18] = test system: IGROV1 ovarian
# [19] = test system: K-562 leukemia
# [20] = test system: KM12 colon
# [21] = test system: LOX IMVI melanoma
# [22] = test system: M14 melanoma
# [23] = test system: MCF7 breast
# [24] = test system: MDA-MB-435
# [25] = test system: MDA-N
# [26] = test system: MOLT-4 leukemia
# [27] = test system: NCI-H226 lung
# [28] = test system: NCI-H23 lung
# [29] = test system: NCI-H460 lung
# [30] = test system: NCI/ADR-RES ovarian
# [31] = test system: OVCAR-3 ovarian
# [32] = test system: OVCAR-4 ovarian
# [33] = test system: OVCAR-5 ovarian
# [34] = test system: OVCAR-8 ovarian
# [35] = test system: PC-3 prostate
# [36] = test system: RPMI-8226 leukemia
# [37] = test system: RXF 393 renal
# [38] = test system: SF-268 CNS
# [39] = test system: SF-295 CNS
# [40] = test system: SF-539 CNS
# [41] = test system: SK-MEL-2 melanoma
# [42] = test system: SK-MEL-28 melanoma
# [43] = test system: SK-MEL-5 melanoma
# [44] = test system: SK-OV-3 ovarian
# [45] = test system: SN12C renal
# [46] = test system: SNB-19 CNS
# [47] = test system: SNB-75 CNS
# [48] = test system: SR leukemia
# [49] = test system: SW-620 colon
# [50] = test system: T-47D breast
# [51] = test system: TK-10 renal
# [52] = test system: U251 CNS
# [53] = test system: UACC-257 melanoma
# [54] = test system: UACC-62 melanoma
# [55] = test system: UO-31 renal
# [56] = test system: CAKI-1 renal
# [57] = test system: MALME-3M melanoma
# [58] = test system: MDA-MB-231 breast
# [59] = test system: NCI-H522 lung
smiles,measurement,setting,value
Cn1c(-c2ccccc2)cc(-c2ccc3c(c2)OCO3)c1-c1cccs1,TGI,[1],> 100 µM
same,TGI,[2],> 100 µM
same,TGI,[3],> 100 µM
same,TGI,[4],> 100 µM
same,TGI,[5],> 100 µM
same,TGI,[6],> 100 µM
same,TGI,[7],> 100 µM
same,TGI,[8],> 100 µM
same,TGI,[9],> 100 µM
same,TGI,[10],> 100 µM
same,TGI,[11],> 100 µM
same,TGI,[12],> 100 µM
same,TGI,[13],> 100 µM
same,TGI,[14],> 100 µM
same,TGI,[15],> 100 µM
same,TGI,[16],> 100 µM
same,TGI,[17],> 100 µM
same,TGI,[18],> 100 µM
same,TGI,[19],> 100 µM
same,TGI,[20],> 100 µM
same,TGI,[21],> 100 µM
same,TGI,[22],> 100 µM
same,TGI,[23],> 100 µM
same,TGI,[24],> 100 µM
same,TGI,[25],> 100 µM
same,TGI,[26],> 100 µM
same,TGI,[27],> 100 µM
same,TGI,[28],> 100 µM
same,TGI,[29],> 100 µM
same,TGI,[30],> 100 µM
same,TGI,[31],> 100 µM
same,TGI,[32],> 100 µM
same,TGI,[33],> 100 µM
same,TGI,[34],> 100 µM
same,TGI,[35],> 100 µM
same,TGI,[36],> 100 µM
same,TGI,[37],> 100 µM
same,TGI,[38],> 100 µM
same,TGI,[39],> 100 µM
same,TGI,[40],> 100 µM
same,TGI,[41],> 100 µM
same,TGI,[42],> 100 µM
same,TGI,[43],> 100 µM
same,TGI,[44],> 100 µM
same,TGI,[45],> 100 µM
same,TGI,[46],> 100 µM
same,TGI,[47],> 100 µM
same,TGI,[48],> 100 µM
same,TGI,[49],> 100 µM
same,TGI,[50],> 100 µM
same,TGI,[51],> 100 µM
same,TGI,[52],> 100 µM
same,TGI,[53],> 100 µM
same,TGI,[54],> 100 µM
same,TGI,[55],> 100 µM
CN(Cc1cnc2nc(N)nc(N)c2n1)c1ccc(C(=O)NC(CCS(=O)(=O)O)C(=O)O)cc1 (centres undefined),TGI,[2],> 100 µM
same,TGI,[3],> 100 µM
same,TGI,[4],> 100 µM
same,TGI,[5],> 100 µM
same,TGI,[56],> 100 µM
same,TGI,[6],0.739 µM
same,TGI,[7],> 100 µM
same,TGI,[9],> 100 µM
same,TGI,[10],> 100 µM
same,TGI,[12],> 100 µM
same,TGI,[13],1.62 µM
same,TGI,[14],> 100 µM
same,TGI,[15],> 100 µM
same,TGI,[16],> 100 µM
same,TGI,[17],> 100 µM
same,TGI,[18],> 100 µM
same,TGI,[20],> 100 µM
same,TGI,[21],> 100 µM
same,TGI,[22],> 100 µM
same,TGI,[57],> 100 µM
same,TGI,[23],> 100 µM
same,TGI,[58],> 100 µM
same,TGI,[24],> 100 µM
same,TGI,[25],> 100 µM
same,TGI,[26],> 100 µM
same,TGI,[27],> 100 µM
same,TGI,[28],> 100 µM
same,TGI,[29],> 31.6 µM
same,TGI,[59],> 100 µM
same,TGI,[30],> 100 µM
same,TGI,[31],> 100 µM
same,TGI,[32],> 100 µM
same,TGI,[34],> 100 µM
same,TGI,[35],> 100 µM
same,TGI,[36],> 100 µM
same,GI50,[38],0.972 µM
same,TGI,[38],> 100 µM
same,TGI,[39],> 100 µM
same,TGI,[40],> 100 µM
same,TGI,[41],> 100 µM
same,TGI,[42],> 100 µM
same,TGI,[43],> 100 µM
same,TGI,[44],> 100 µM
same,TGI,[45],> 100 µM
same,TGI,[46],> 100 µM
same,GI50,[47],96 µM
same,TGI,[47],> 100 µM
same,TGI,[48],> 100 µM
same,TGI,[49],> 100 µM
same,TGI,[50],> 100 µM
same,TGI,[51],> 100 µM
same,TGI,[53],> 100 µM
same,TGI,[54],> 100 µM
same,TGI,[55],> 100 µM
